Data published in ChEMBL document CHEMBL1201862, “PubChem BioAssay data set” (2004).
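How tested: cells in 96-well plates exposed to compound for 48 hours at five concentrations. At the GI50, growth is halved.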 The source made the active and inactive calls. No stated cut-off is given here; in the data, active = GI50 up to about 1.1 µM and inactive = higher.

Columns and labels:
Test in all cases: NCI-60 cell line screen, 48 h
A498 = system: A498
COLO 205 = system: COLO 205
DU-145 = system: DU-145
EKVX = system: EKVX
HOP-62 = system: HOP-62
HT-29 = system: HT-29
LOX IMVI = system: LOX IMVI
M14 = system: M14
MDA-MB-231 = system: MDA-MB-231
Malme-3M = system: Malme-3M
NCI-H460 = system: NCI-H460
NCI-H522 = system: NCI-H522
NCI/ADR-RES = system: NCI/ADR-RES
OVCAR-4 = system: OVCAR-4
SF-295 = system: SF-295
SF-539 = system: SF-539
SNB-75 = system: SNB-75
SW-620 = system: SW-620
U-251 = system: U-251
UACC-257 = system: UACC-257

Measured: GI50

C[C@H](CCC1=NCCN1)[C@H]1CC[C@H]2[C@@H]3CC[C@@H]4C[C@H](O)CC[C@]4(C)[C@H]3C[C@H](O)[C@]12C
inactive: A498 20.8 µM | COLO 205 10.2 µM | DU-145 15.6 µM | EKVX 18.5 µM | HOP-62 15.5 µM | HT-29 10.5 µM | LOX IMVI 11.2 µM | M14 17.4 µM | MDA-MB-231 14.9 µM | Malme-3M 13.7 µM | NCI-H460 13.9 µM | NCI-H522 5.75 µM | NCI/ADR-RES > 100 µM | OVCAR-4 15.9 µM | SF-295 15.6 µM | SF-539 13.2 µM | SNB-75 2.37 µM | SW-620 19.9 µM | U-251 8.11 µM | UACC-257 15.4 µM

CC(=O)Nc1[nH]c(C#N)nc1C#N
inactive: A498 > 100 µM | COLO 205 > 100 µM | DU-145 > 100 µM | EKVX > 100 µM | HOP-62 > 100 µM | HT-29 > 100 µM | LOX IMVI > 100 µM | M14 > 100 µM | MDA-MB-231 > 100 µM | Malme-3M > 100 µM | NCI-H460 > 100 µM | NCI-H522 > 100 µM | NCI/ADR-RES > 100 µM | OVCAR-4 > 100 µM | SF-295 > 100 µM | SF-539 > 100 µM | SNB-75 > 100 µM | SW-620 > 100 µM | U-251 > 100 µM | UACC-257 > 100 µM

N=C(CCl)NC1CN2CCC1CC2 (stereo not given)
inactive: A498 > 100 µM | COLO 205 27.4 µM | DU-145 > 100 µM | EKVX 67.5 µM | HOP-62 > 100 µM | HT-29 48.3 µM | LOX IMVI 34.1 µM | M14 > 100 µM | MDA-MB-231 > 100 µM | Malme-3M > 100 µM | NCI-H460 > 100 µM | NCI-H522 19.4 µM | NCI/ADR-RES > 100 µM | OVCAR-4 59 µM | SF-295 > 100 µM | SF-539 60.5 µM | SNB-75 > 100 µM | SW-620 68.7 µM | U-251 49.1 µM | UACC-257 > 100 µM

OC(c1ccc(-c2ccccc2)cc1)C(F)(F)c1nc2ccccc2o1 (stereo not given)
inactive: A498 9.12 µM | COLO 205 > 74 µM | DU-145 26.5 µM | EKVX > 73.3 µM | HOP-62 30.7 µM | HT-29 > 68.1 µM | LOX IMVI > 95.3 µM | M14 > 100 µM | MDA-MB-231 17.5 µM | Malme-3M 91.8 µM | NCI-H460 37.5 µM | NCI-H522 25 µM | NCI/ADR-RES > 79.8 µM | OVCAR-4 18.6 µM | SF-295 96.4 µM | SF-539 31.2 µM | SNB-75 27.8 µM | SW-620 > 100 µM | U-251 30.7 µM | UACC-257 40.3 µM

COc1c(-c2nc3ccc(N4CCN(C)CC4)cc3[nH]2)cc(OC)c2[nH]c(COC(C)=O)nc12
inactive: A498 > 100 µM | COLO 205 50.1 µM | DU-145 26.1 µM | EKVX 98.4 µM | HOP-62 67.1 µM | HT-29 36.7 µM | LOX IMVI 30.8 µM | M14 19.6 µM | MDA-MB-231 34.2 µM | Malme-3M 25.1 µM | NCI-H460 43.1 µM | NCI-H522 48.9 µM | NCI/ADR-RES > 100 µM | OVCAR-4 29.8 µM | SF-295 71.8 µM | SF-539 36.6 µM | SNB-75 9.4 µM | SW-620 40.2 µM | U-251 48.3 µM | UACC-257 53.5 µM
